One substance from patent publication EP4523682A1, “PROCESS TO COMPLEX OLEANOLIC ACID WITH CYCLODEXTRINS AND PRODUCTS OBTAINED THEREOF” (FUNDACION UNIVERSITARIA SAN ANTONIO (UCAM), priority 2023, dated 2025) can be followed below.

Assay [1] has as its system c-Jun active phosphorylated form (p-c-Jun). As to the kind of experiment: Cell-front migration assay, p-c-Jun immunostaining. It is filed as cell-based, Mink. As to conditions: 12.5/3.12 µM/mM OA/HP-β-CD, 5 µM OA/DMSO.
Experimental: Mv1Lu cells are grown until they reach confluence on round glass-coverslips in 10% FBS-EMEM medium. At this time, cells are washed and a 24h serum-starvation period is set by replacing the medium with FBS-free EMEM. After this, the epithelium is scratched using a razor blade, which produces an artificial wound with enough space to allow cells to migrate. […] After the selected times of incubation, glass-coverslips are fixed with 4% formaldehyde (Applichem GmbH, Darmstadt, Germany) in PBS (Biowest, Nuaillé, France) for 10 minutes and washed twice with PBS. After this, cells are permeabilized with 0,3% Triton X-100 (Sigma-Aldrich, St Louis, MO, USA) in PBS for 10 minutes. […] In order to quantify phospho-c-Jun levels in immunofluorescence pictures, images are analyzed and quantified by Image J software. […] Within each sector, the quantified signal of each nucleus is used as a replicate to obtain p-c-Jun intensity data in each of the conditions performed. For a better understanding, the relation of number of p-c-Jun positive nuclei between total nuclei number is calculated. For this purpose, a basal p-c-Jun intensity mean is calculated considering the control condition of the assays, set as a threshold. […]
Data of intensity values obtained from p-c-Jun nuclei quantifications in immunofluorescence pictures are analyzed by using two statistic tests: Two-way ANOVA test and One-way ANOVA test.
For a further assay, the system named is c-Jun. As to the kind of experiment: Western blot. The class given is cell-based, Human. As to conditions: 21/5.25 µM/mM OA/HP-β-CD; 10 µM OA/DMSO. The protocol:
(§1) Mv1Lu or MDA-MB-231 cells are seeded and allowed to reach 60% confluence in 10 cm diameter plates. At this time, culture medium containing 10% FBS is replaced by an FBS-free medium, incubating the cells for a 24-hours period. Serum-deprived cells are treated with either OA, OA/HP-β-CD, DMSO, HP-β-CD or 10 ng/ml EGF. After time incubations, cells are harvested, washed twice with ice-cold PBS and lysed with 20 mM TRIS pH 7.5, 150 mM NaCl, 1 mM EDTA, 1.2 mM MgCl2, 0.5%, Nonidet p-40, 1mM DTT, 25 mM NaF and 25 mM β-glycerophosphate supplemented with phosphatase inhibitors (I and II) and protease inhibitors (all from Sigma-Aldrich, St Louis, MO, USA). Total protein amount of all extracts is measured and normalized by Bradford assay (Sigma-Aldrich, St Louis, MO, USA). The extracts are analyzed by SDS-PAGE followed by Western blot (WB) using the indicated antibodies (see Antibodies section). […] For protein quantification, Western pictures in 8-bit format are processed in imaged software. Subsequently, in all Western blot pictures, a lane is stablished for each of the samples. In each lane, the band is selected according to the specific size (kDa) of the protein of interest. For each total protein and their phosphorylated version, each band's intensity peak is plotted, and next, the area under the plot is measured by using "Wand (tracing) tool" of imaged to obtain the intensity value. In order to normalize, obtained intensity values are referred to obtained intensity values of either the unphosphorylated form of the protein (total) or a loading control protein such as β-actin, only if the unphosphorylated form is undetectable (non-available antibody for detecting the unphosphorylated form). […]
A general note: A western blot detects proteins with antibodies after separation by electrophoresis.

The subject of the next assay is phospho-c-Jun (Ser 63). As to the kind of experiment: Western blot. It is filed as cell-based, Human. As to conditions: 21/5.25 µM/mM OA/HP-β-CD; 10 µM OA/DMSO. As for the experimental part: as §1
Assay [2] concerns phospho-JNK1/2 (Thr 183/Tyr 185). As to the kind of experiment: Western blot. The class given is cell-based, Human. As to conditions: 21/5.25 µM/mM OA/HP-β-CD; 10 µM OA/DMSO. The protocol:
as §1

Assay [3] has as its system focal adhesions (FAs) revealed by Paxillin. As to the kind of experiment: Cell-front migration assay, focal adhesions by paxillin immunostaining. As to conditions: 6 and 12 hours; 12.5/3.12 µM/mM OA/HP-β-CD; 5 µM OA/DMSO; versus basal and vehicle control. The class given is cell-based, Mink.
Experimental: Mv1Lu cells are grown until they reach confluence on round glass-coverslips in 10% FBS-EMEM medium. At this time, cells are washed and a 24h serum-starvation period is set by replacing the medium with FBS-free EMEM. After this, the epithelium is scratched using a razor blade, which produces an artificial wound with enough space to allow cells to migrate. […] After the selected times of incubation, glass-coverslips are fixed with 4% formaldehyde (Applichem GmbH, Darmstadt, Germany) in PBS (Biowest, Nuaillé, France) for 10 minutes and washed twice with PBS. After this, cells are permeabilized with 0,3% Triton X-100 (Sigma-Aldrich, St Louis, MO, USA) in PBS for 10 minutes. For immunostaining, a blocking is performed for 30 minutes at room temperature in PBS solution with 10% FBS, 5% skim milk (Beckton Dickinson, Franklin Lakes, NJ, USA), 0,3% bovine serum albumin (BSA, Sigma-Aldrich, St Louis, MO, USA) and 0,1% Triton X-100. Then, cells are incubated 1 hour at room temperature with anti-paxillin or anti-phospho-c-Jun antibodies, diluted in blocking solution without skim milk. […] Briefly, focal adhesions are quantified from paxillin stained acquired pictures. […] Then, the number of FAs are calculated in each filopodia by using the previously mentioned macros. […] In parallel, the size of each FA is measured using the macros mentioned above. Finally, FA average size is calculated for each treatment.

As for Oleanolic acid [OA/DMSO], the “p-c-Jun in cells at the edge of the wound (immunostaining)” value in assay [1] (6 and 12 hours) is “promote the up-regulation of this active form of c-Jun”. Moreover, in assay [1], the “p-c-Jun fluorescence in the nuclei (quantified)” value was “promoted the expression and activation of this factor”. The “total c-Jun levels” value in the assay with c-Jun is listed as “stimulated c-Jun overexpression at the early time of 1 h”. Besides, in the assay with phospho-c-Jun (Ser 63), the p-c-Jun entry is reported as “stronger stimulation of p-c-Jun at time 1 hour”. The p-JNK1/2 entry in assay [2] is recorded as “stimulated this kinase at time 1 hours”. For the same substance, in assay [3], the “number of adhesion foci (FAs density)” value is given as “greater number of adhesion foci” and the “size of adhesion foci (FA average size)” value is listed as “small foci”.
